Experimental data: patent US8889861B2, “Crystalline forms of a purine derivative” (Cyclacel Limited, priority 2010, dated 2014)
Converted amounts (≈) assume the structure as drawn. “And” between values parts separate entries of the source, which are not always exact repeats. Equal entries are not always repeated. “Also recorded” adds a separate entry of the source. Where two headings read alike, the source gives them in different places.

Tests used:
[1] = Gravimetric vapour sorption (GVS) / hygroscopicity; assay type: physicochemical; conditions: for mass increase (GVS): 25° C., 40-90% RH; for reversible uptake of water from 0 to 90% RH: GVS
Experimental: Gravimetric Vapour Sorption (GVS)
Sorption isotherms were obtained using a SMS DVS Intrinsic moisture sorption analyser, controlled by SMS Analysis Suite software. […] The humidity was controlled by mixing streams of dry and wet nitrogen, with a total flow rate of 200 ml. min^−1. The relative humidity was measured by a calibrated Rotronic probe (dynamic range of 1.0-100% RH), located near the sample. The weight change, (mass relaxation) of the sample as a function of % RH was constantly monitored by the microbalance (accuracy ±0.005 mg). Typically 5-20 mg of sample was placed in a tared mesh stainless steel basket under ambient conditions. The sample was loaded and unloaded at 40% RH and 25° C. (typical room conditions). A moisture sorption isotherm was performed as outlined below (2 scans giving 1 complete cycle). The standard isotherm was performed at 25° C. at 10% RH intervals over a 0.5-90% RH range.
Method Parameters for SMS DVS Intrinsic Experiments:
The sample was recovered after completion of the isotherm and re-analysed by XRPD.
Hiden Isochema Moisture Sorption Analyser (IGAsorp)
Sorption isotherms were obtained using a Hiden Isochema Moisture Sorption Analyser (IGAsorp) controlled by IGAsorp Systems Software V6.50.48. […] The humidity was controlled by mixing streams of dry and wet nitrogen, with a total flow rate of 250 ml. min^−1. The instrument was verified for relative humidity content by measuring three calibrated Rotronic salt solutions (10-50-88%). The weight change of the sample as a function of % RH was monitored by microbalance (accuracy ±0.005 mg). A defined amount of sample was placed in a tared mesh stainless steel basket under ambient conditions. A full experimental cycle consisted of two scans (sorption and desorption) at a constant temperature (25° C.) and 10% RH intervals over a 10-90% RH range (90 minutes for each humidity level).
11.254 mg of sample was placed in a tarred mesh stainless steel basket under ambient conditions. A full experimental cycle consisted of two scans (sorption and desorption) at a constant temperature (25° C.) and 10% RH intervals over a 40-90% range (180 minutes for each humidity level). The mass increase of approximately 0.09 mg (−0.8%) and the facile uptake and loss relative to humidity level indicates a non-hygroscopic sample that dampens with surface moisture only.

[2] = Storage in a humidity chamber at 25° C. (75%, 94% or 97% RH); assay type: physicochemical; conditions: for observation on storage: 25° C./97% RH, time not stated
Experimental: However, a large proportion of the peaks corresponding to compound (I) appear as broadened multiplets, probably due to the presence of the sulfonic acid group, making successful assignment non-trivial. A significant quantity of residual TBME was also visible, though this is believed to be unbound solvent rather than a solvate. XRPD analysis confirmed the material to be crystalline. […] Deliquescence of a sample of the product was observed after storage in a humidity chamber at 25° C. and 94% RH for 2 hours. […]

[3] = Rehydration under ambient conditions followed by TGA; assay type: physicochemical; conditions: 8 mg sample in open TGA pan after heating to 100° C., ambient conditions (approximately 25° C. and 40% RH)
Experimental: A sample of product was heated to 100° C., held for 10 minutes, cooled to 30° C., held for 5 minutes and then re-heated to 250° C. […] To investigate whether the phosphate salt exists as a hydrate under ambient conditions that can be reversibly dehydrated at temperature in the presence of air, a series of TGA experiments were undertaken to clarify how quickly the material rehydrates under ambient conditions. A series of samples were taken to 100° C. then cooled to 25° C. under nitrogen using the TGA equipment. The samples were stored under ambient conditions (RT in air) for varying times and then the TGA experiment was re-run. As a comparison a heat/cool/heat experiment was undertaken under an inert atmosphere of nitrogen using the TGA; a sample was heated to 100° C., cooled to 25° C. and heated to 100° C. for a second time.
Within 30 minutes an 8 mg sample of product in an open TGA pan had fully rehydrated.

[4] = Polymorph interconversion of L-tartrate Forms D and E (slurry conversion); conditions: slurry: 1:1 Form D:Form E, 45° C., 48 hours, ethyl acetate, IPA, IMS or acetonitrile
Experimental: Form E of the L-Tartrate salt of compound (I) was also prepared by slurry conversion from four different solvents (ethyl acetate, IPA, IMS or acetonitrile). A 1:1 mixture of Form by weight of D: Form E L-Tartrate salt (200 mg total) was heated at 45° C. over 48 hours in 2 ml of solvent prior to filtration and analysis.

[5] = 24 h
Experimental: Thermodynamic Aqueous Solubility
The suspension was equilibrated at 25° C. for 24 hours then the pH was measured. The suspension was then filtered through a glass fibre C filter into a 96 well plate. The filtrate was then diluted by a factor of 101. Quantitation was by HPLC with reference to a standard solution of approximately 0.1 mg. ml^−1 in DMSO. Different volumes of the standard, diluted and undiluted sample solutions were injected.
The suspension was equilibrated at 25° C. for 24 hours. The suspension was then filtered through a filter into an HPLC vial. The filtrate was then diluted by an appropriate factor. Quantification was executed by HPLC with reference to a standard solution of 0.5 mg in 1 mL acetonitrile/water (1:1). Different volumes of the standard, diluted and undiluted sample solutions were injected.
The pH of the solution post solubility was pH 5.

Storage at 40° C./75% RH = assay type: physicochemical; conditions: for 40° C./75% RH, XRPD / 40° C./75% RH, appearance: 7 d; for 40° C./75% RH, observation or form change: storage time not stated
Experimental: A new XRPD pattern corresponding to the HBr salt was obtained upon storage of HBr Pattern 1 (Form J) at 40° C./75% relative humidity.
The sample was dried in a vacuum oven at 40° C./3 mbar for 18 h to yield the L-malate (Form R) as a white solid. NMR analysis of the sample of Form R formed during the storage of Form Q at 40° C./75% RH confirmed it to be a mono-malate salt.

[6] = system: range of different cell lines; conditions: cited from earlier work
cyclin dependent kinases = conditions: cited from earlier work

CC[C@H](Nc1nc(NCc2cnc(C)cc2C)c2ncn(C(C)C)c2n1)[C@@H](C)O [Form A]
hygroscopicity [1]: non-hygroscopic | mass increase (GVS) [1]: −0.8% | mass increase (GVS) ([1]; 11.254 mg sample): approximately 0.09 mg | XRPD of sample post GVS ([1]; GVS at 25° C.): no change

CC[C@H](Nc1nc(NCc2cnc(C)cc2C)c2ncn(C(C)C)c2n1)[C@@H](C)O [Form B]
XRPD after storage ([2]; 25° C. and 94% RH for 88 hours): matched those acquired for the phosphate salt crystallised from ethanol | appearance after storage ([2]; 25° C. and 94% RH for 88 hours): no deliquescence was observed | hygroscopicity [1]: not to be hygroscopic | XRPD of sample post GVS ([1]; GVS at 25° C.): matched those acquired from product crystallised from ethanol | uptake of water above 80% RH ([1]; GVS at 25° C.): ~1.5 weight % | water lost upon taking to 0% RH ([1]; GVS at 25° C.): 0.5 weight % | XRPD of sample post GVS ([1]; GVS at 40° C.): matched those acquired from product crystallised from ethanol | uptake of water above 80% RH ([1]; GVS at 40° C.): ~2 weight % | water lost upon taking to 0% RH ([1]; GVS at 40° C.): ~2.6 weight % | time to full rehydration [3]: ≤ 30 min

CC[C@H](Nc1nc(NCc2cnc(C)cc2C)c2ncn(C(C)C)c2n1)[C@@H](C)O [Form C]
hygroscopicity [1]: low hygroscopicity; also recorded: not hygroscopic | uptake of water between 60 and 90% RH ([1]; GVS at 25° C.): 0.5 % by weight | weight loss between 10 and 0% RH ([1]; GVS at 25° C.): 0.5%

CC[C@H](Nc1nc(NCc2cnc(C)cc2C)c2ncn(C(C)C)c2n1)[C@@H](C)O [Form D]
XRPD after storage ([2]; 25° C. and 75% RH for 4 days): consistent with that of the original product | appearance after storage ([2]; 25° C. and 75% RH for 4 days): unchanged | XRPD after storage ([2]; 25° C. and 94% RH for 70 hours): some peaks corresponding to those in the pattern acquired for the original product, though a significant amorphous halo was also visible | appearance after storage ([2]; 25° C. and 94% RH for 70 hours): slightly tacky, though it had not deliquesced | hydrate formation at high RH (GVS) [1]: no hydrate is formed | hygroscopicity [1]: hygroscopic only above 70% RH | relative stability of the L-tartrate polymorphs [4]: metastable

CC[C@H](Nc1nc(NCc2cnc(C)cc2C)c2ncn(C(C)C)c2n1)[C@@H](C)O [Form E]
hygroscopicity [1]: only slightly hygroscopic | Aqueous solubility [5]: 43.9 mg/mL | aqueous solubility [5]: 43.905 mg/mL (≈ 110 mM)

CC[C@H](Nc1nc(NCc2cnc(C)cc2C)c2ncn(C(C)C)c2n1)[C@@H](C)O [Form F]
XRPD after storage ([2]; 25° C. and 75% RH for 70 hours): consistent with that of the original product | appearance after storage ([2]; 25° C. and 75% RH for 70 hours): unchanged | XRPD after storage ([2]; 25° C. and 94% RH for 3 days): same pattern as obtained for the initial product, but with a significant amorphous halo | appearance after storage ([2]; 25° C. and 94% RH for 3 days): slightly tacky, though it had not deliquesced | hydrate formation at high RH (GVS) [1]: no hydrate is formed | hygroscopicity [1]: hygroscopic above only 70% RH

CC[C@H](Nc1nc(NCc2cnc(C)cc2C)c2ncn(C(C)C)c2n1)[C@@H](C)O [Form G]
XRPD after storage ([2]; 25° C. and 75% RH for 70 hours): consistent with that of the original product, but with a slightly larger amorphous halo | appearance after storage ([2]; 25° C. and 75% RH for 70 hours): slightly tacky | appearance after storage ([2]; 25° C. and 94% RH for 2 hours): Deliquescence | hygroscopicity [1]: highly hygroscopic above 75% RH

CC[C@H](Nc1nc(NCc2cnc(C)cc2C)c2ncn(C(C)C)c2n1)[C@@H](C)O [Form H]
AQ Solubility [5]: 75 mg/mL | 40° C./75% RH, observation (Storage at 40° C./75% RH; 30 min): 30 min - Deliquescence

CC[C@H](Nc1nc(NCc2cnc(C)cc2C)c2ncn(C(C)C)c2n1)[C@@H](C)O [Form I]
AQ Solubility [5]: > 79 mg/mL | 40° C./75% RH, XRPD (Storage at 40° C./75% RH): conversion to HCl | 40° C./75% RH, appearance (Storage at 40° C./75% RH): Sticky solid | 40° C./75% RH, observation or form change (Storage at 40° C./75% RH): unstable; also recorded: conversion to HCl Pattern 1 (Form H)

CC[C@H](Nc1nc(NCc2cnc(C)cc2C)c2ncn(C(C)C)c2n1)[C@@H](C)O [Form J]
AQ Solubility [5]: > 30 mg/mL | 40° C./75% RH, observation (Storage at 40° C./75% RH; 15 h): deliquescence and 15 h - Deliquescence | 40° C./75% RH, XRPD (Storage at 40° C./75% RH): conversion to a new | 40° C./75% RH, appearance (Storage at 40° C./75% RH): crystallisation was observed; also recorded: Sticky solid | 40° C./75% RH, observation or form change (Storage at 40° C./75% RH): conversion to a new Pattern—HBr Pattern 2 (Form K)

CC[C@H](Nc1nc(NCc2cnc(C)cc2C)c2ncn(C(C)C)c2n1)[C@@H](C)O [Form L]
observation on storage [2]: deliquescence | hygroscopicity ([1]; listed as Mesylate Pattern 1): hygroscopic | AQ Solubility [5]: 137 mg/mL | Aqueous solubility [5]: ~140 mg/mL | 40° C./75% RH, observation (Storage at 40° C./75% RH; 15 h): 15 h - Deliquesced | 40° C./75% RH, observation (Storage at 40° C./75% RH; 15 h, listed as Mesylate Pattern 1): deliquescence | 40° C./75% RH, appearance (Storage at 40° C./75% RH): 7 d - No change | 40° C./75% RH, observation or form change (Storage at 40° C./75% RH; listed as mesylate salt): deliquescence

CC[C@H](Nc1nc(NCc2cnc(C)cc2C)c2ncn(C(C)C)c2n1)[C@@H](C)O [Form M]
observation on storage [2]: deliquescence | hygroscopicity ([1]; listed as Maleate Pattern 1): hygroscopic above 75% RH | hygroscopicity ([1]; listed as maleate salt): hygroscopic above 40° C./70% RH | AQ Solubility [5]: 73 mg/mL | 40° C./75% RH, XRPD (Storage at 40° C./75% RH): consistent with Maleate | 40° C./75% RH, appearance (Storage at 40° C./75% RH): Sticky solid | 40° C./75% RH, observation or form change (Storage at 40° C./75% RH; listed as Maleate Pattern 1): sticky solid

CC[C@H](Nc1nc(NCc2cnc(C)cc2C)c2ncn(C(C)C)c2n1)[C@@H](C)O [Form P]
hygroscopicity [1]: Non-hygroscopic, reversible uptake of | reversible uptake of water from 0 to 90% RH [1]: <0.4 wt % from 0 to 90% RH | reversible uptake of water from 0 to 90% RH ([1]; listed as Fumarate Pattern 1): less than 0.4 wt % | hygroscopicity ([1]; listed as Fumarate Pattern 1): non-hygroscopic | AQ Solubility [5]: 54 mg/mL | Aqueous solubility [5]: approximately 50 mg. ml^−1 | 40° C./75% RH, appearance (Storage at 40° C./75% RH): No visual change

CC[C@H](Nc1nc(NCc2cnc(C)cc2C)c2ncn(C(C)C)c2n1)[C@@H](C)O [Form Q]
hygroscopicity ([1]; listed as L-malate Pattern 1): hygroscopic | AQ Solubility [5]: 92 mg/mL | 40° C./75% RH, observation (Storage at 40° C./75% RH; 15 h): 15 h - Deliquescence | 40° C./75% RH, observation (Storage at 40° C./75% RH; 15 h, listed as L-malate Pattern 1): deliquescence | 40° C./75% RH, observation (Storage at 40° C./75% RH; 72 h): crystallisation had occurred | 40° C./75% RH, observation (Storage at 40° C./75% RH; 72 h, listed as L-malate Pattern 1): crystallisation of a new solid form | 40° C./75% RH, appearance (Storage at 40° C./75% RH): White solid | 40° C./75% RH, observation (Storage at 40° C./75% RH; inside 2 h): deliquescence

CC[C@H](Nc1nc(NCc2cnc(C)cc2C)c2ncn(C(C)C)c2n1)[C@@H](C)O [Form R]
hygroscopicity [1]: less hygroscopic than the benzensulfonate and citrate salts | reversible uptake of water from 0 to 90% RH [1]: Reversible uptake of ~2.5 wt % H2O from 0 to 90% RH

CC[C@H](Nc1nc(NCc2cnc(C)cc2C)c2ncn(C(C)C)c2n1)[C@@H](C)O [compound (I)]
potency in cellular toxicity studies [6]: surprisingly high potency | CDK inhibitory activity (cyclin dependent kinases): potent
